Measured values published in US20090054376A1, “BENZOFURAN DERIVATIVES WITH THERAPEUTIC ACTIVITIES” (Pharmos Corporation, priority 2005, published 2009).
“Also recorded” adds a separate entry of the source. Where two headings read alike, the source gives them in different places.

How the values were obtained:
[1] = 10 mg/kg i.v.; cited from earlier work
[2] = system: pentobarbital-induced sleep; settings: 10 mg/kg i.v.; cited from earlier work
[3] = system: TNF-α; assay: Cytokine secretion into blood circulation in LPS injected mice, TNF-α; format: in vivo, Balb/C female mice; settings: 2 mg/kg i.v., LPS 3 mg/kg i.p., plasma 90 minutes after LPS
Procedure: (§1) Balb/C female mice (average body weight 20 g, Harlan, Israel) were injected i.v. at a volume dosage of 5 ml/kg with either vehicle or test compounds at a dose of 2 mg/kg. Each treatment group comprised at least 9 animals. Immediately after compound or control administration, the mice were injected i.p. with 3 mg/kg LPS (E. coli 055:B5, Calbiochem). Ninety minutes after LPS induction, blood samples were collected into heparanized test tubes. Plasma was separated by centrifugation (10,000 rpm for 5 minutes at RT) and stored at −20° C. until assayed. The level of the inflammatory mediator under study, IL-1β, IL-6, IL-10 or TNF-α, was assayed by ELISA techniques.
(§2) The technique used to quantify the amount of a given protein in a liquid sample, either tissue culture supernatant or body fluid, is based on Enzyme Linked ImmunoSorbent Assay (ELISA) methodology. Either commercially available or established in house, the assay is based on the capture of the protein of interest by specific antibodies bound to the bottom of an ELISA plate well. Unbound material is washed away, the captured protein is then exposed to a secondary antibody generally labeled with horseradish peroxidase (HRP) or alkaline phosphatase (ALP). Again the unbound material is washed away, and the samples are then incubated with the appropriate substrate yielding a colorimetric reaction. The reaction is stopped and reading is performed in a spectrophotometer at the appropriate wavelength. Samples are tested at least in duplicate and the appropriate standard curve, consisting of serial dilutions of the recombinant target protein, is incorporated on each plate. The concentration of the protein in the sample is calculated from the standard curve.
(§3) The results are expressed as percent inhibition of secretion, taking into account the maximal cytokine concentration in vehicle “treated” animals and the baseline level in naïve animals. […] Inhibition above 50% was considered highly significant.

[4] = system: CB1 related cannabimimetic activity; assay: Safety: body temperature, catalepsy, spontaneous locomotor activity, elevated plus maze, sensitivity to touch; format: in vivo, ICR male mice; settings: 2 mg/kg i.v.
Procedure: In the present study, impact of compounds of the invention on the central nervous system was measured by monitoring the body temperature, catalepsy and spontaneous locomotor activity of rodents. These activities are part of the Tetrad assays which are indicative, if all parameters are affected, of CB1 mediated activity. In addition, lack of CNS psychomimetic effect was assessed in the elevated plus maze model. Finally, sensitivity to touch was determined in order to evaluate peripheral CB1 related activity.
ICR male mice (average body weight 25 g, Harlan, Israel) were administered the compounds of the invention i.v. at a dose of 2 mg/kg and at a volume dose of 5 ml/kg. The psychoactive cannabinoid HU-210 was used as positive control at the 100-fold lower dose of 0.02 mg/kg i.v. The following measurements were made starting 15 minutes after compound administration. All tests were completed for each animal within approximately 10 minutes. Rectal temperature was monitored using a thermistor probe (YSI model 400, USA). Spontaneous locomotion was assessed using the open field methodology. The number of squares crossed by the animals were recorded and analyzed during a period of three minutes. At the end of the open field test, the animals were tested for catalepsy symptoms. This was carried out by gently forcing the animal to stand on its hind paws when its front paws are holding on an elevated beam. The time for the animal to step down of the beam was measured in seconds. A normal animal withdraws the beam immediately whereas cataleptic animal tend to stay on the beam. The longer the animal stays leaning on the beam, the more cataleptic the animal is. The behavior of the animals was then assessed in the elevated plus maze. The elevated plus maze consists of two open arms and two arms that are enclosed by high walls (arms 30×10 cm, wall height 20 cm). The elevated plus maze is usually elevated 80 cm above the floor. The mouse is placed on the maze head facing an open arm, and the time spent in the different compartments of the maze (open arms, closed arms and central area) are measured for the next 5 minutes. Results are expressed as percent of the time spent in the open arms, normal animals preferring to stay in the closed arms of the maze. Finally, animals were gently touched by an observer blinded for the treatment group and their sensitivity scored according to the following scale: 0 not sensitive, 1 sensitive and 2 highly sensitive. Results are expressed as average±SEM. At the end of the study, the animals were euthanized.

[5] = system: visceral pain writhing responses; assay: Visceral pain, acetic acid induced writhing responses; format: in vivo, Male ICR mice; settings: single dose 2 mg/kg i.v., compared to untreated group
[6] = system: carrageenan induced inflammatory pain and paw edema; assay: Inflammatory pain and paw edema induced by carrageenan; format: in vivo, Male Sprague Dawley rats; settings: 10 mg/kg i.p.; for inhibition in vivo at 10 mg/kg: Rattus norvegicus, ip
How it was run: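 Male Sprague Dawley rats (~200 g) received 0.1 ml 2% λ-carrageenan subplantar in the right paw; compounds given i.p. at 3, 10 or 20 mg/kg (some p.o.) immediately after. Thermal (Hargreaves) latency, mechanical threshold, paw thickness and volume measured at 0 and 3 h; values are inter-paw differences ([…], ΔForce), volume as % of vehicle.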

[7] = system: IL-6; assay: Cytokine secretion into blood circulation in LPS injected mice, IL-6; format: in vivo, Balb/C female mice; settings: 2 mg/kg i.v., LPS 3 mg/kg i.p., plasma 90 minutes after LPS
Procedure: as §1, §2, §3

[8] = system: IL-10; assay: Cytokine secretion into blood circulation in LPS injected mice, IL-10; format: in vivo, Balb/C female mice; settings: 2 mg/kg i.v., LPS 3 mg/kg i.p., plasma 90 minutes after LPS
Procedure: as §1, §2, §3

[9] = system: IL-1β; assay: Cytokine secretion into blood circulation in LPS injected mice, IL-1β; format: in vivo, Balb/C female mice; settings: 2 mg/kg i.v., LPS 3 mg/kg i.p., plasma 90 minutes after LPS
Procedure: as §1, §2, §3

[10] = system: visceral pain writhing responses; assay: Tolerance: repeated administration in the model of Visceral Pain; format: in vivo, mice; settings: tested day 11 at 2 mg/kg i.v.
Procedure: Male ICR mice (average body weight 25 g, Harlan, Israel) were pretreated by i.v. injection at volume dose of 5 ml/kg of vehicle, control and test compounds at various doses. Other routes of administration were tested for selected compounds including i.m. or s.c. injections at volume dose of 2.5 ml/kg and p.o. gavage at volume dose of 5 ml/kg. Compounds were dissolved in CREMOPHOR®:Ethanol and diluted 1:20 in saline prior to injection or gavage. Compounds administered i.v. were injected fifteen minutes before pain induction, whereas compounds administered i.m., s.c. or p.o. were supplied thirty minutes before pain induction, unless otherwise indicated. Each treatment group, except for controls comprising at least 30 animals, was composed of at least 6 animals. Fifteen or thirty minutes after drug administration, depending on the route of administration, the mice were injected i.p. with 10 ml/kg of 0.6% acetic acid and the number of visceral pain related behaviors (writhing movements globally defined as WR, i.e. stretching, contractions of the abdomen accompanied by an elongation of the body and extension of the hind limbs) was counted over a period of 5 minutes, starting 5 minutes after the acetic acid administration. These visceral pain related behaviors were globally defined as writhing responses (WR). The results are expressed as mean number of writhing responses ±SEM. Data were analyzed using analysis of variance (ANOVA) followed by post-hoc Fisher test.
Briefly compounds of the invention were administered at 10 mg/kg i.p. daily for 10 days and their analgesic activity was tested on day 11 as described in Example 17 (namely at 2 mg/kg i.v.). […] Each treatment group comprised 10 animals.

C=C(C)[C@@H]1CC[C@](C)(O)[C@H]2Oc3cc(CCCCC)cc(O)c3[C@@H]12 [CBE]
effect on body temperature of mice [1]: does not affect body temperature of mice | prolongation of pentobarbital-induced sleep [2]: nor does it prolong pentobarbital-induced sleep

CCCCCCC(C)(C)c1cc(O)c2c(c1)OC1CCCCCC21 (stereo not drawn) [Compound C7S-1, 2-(1,1-dimethylheptyl)-5,6,7,8,9,9a-hexahydro-4bH-10-oxa-benzo[α]azulen-4-ol]
Inhibition of cytokine secretion into blood circulation, TNF-α [3]: NO (NO indicates that the compound tested did not significantly affect the level of cytokine in plasma of LPS injected mice and that its activity is comparable to vehicle, within ±20% from this control) | adverse cannabimimetic activities in any of the parameters monitored [4]: None | decrease of rectal temperature ([4]; non-significant): about 1.2 °C | rectal temperature ([4]; vehicle 38.88±0.11° C.): 37.45±0.39 °C | Percent Inhibition of Visceral Pain Writhing Responses [5]: 76% | Percent Inhibition of Inflammatory Pain Responses, Edema ([6]; 3 hours after carrageenan, reduction in paw swelling): 60% | Percent Inhibition of Inflammatory Pain Responses, ΔForce ([6]; 3 hours, mechanical stimulus): 13% | Percent Inhibition of Inflammatory Pain Responses, ΔLT ([6]; 3 hours, thermal stimulus): 0% | Inhibition of cytokine secretion into blood circulation, IL-6 [7]: 82% | Inhibition of cytokine secretion into blood circulation, IL-10 [8]: 82% | Inhibition of cytokine secretion into blood circulation, IL-1β [9]: NO (NO indicates that the compound tested did not significantly affect the level of cytokine in plasma of LPS injected mice and that its activity is comparable to vehicle, within ±20% from this control)

CN1CC[C@]23c4c5ccc(O)c4O[C@H]2[C@@H](O)C=C[C@H]3[C@H]1C5 [morphine, reference compound]
Percent Inhibition of Visceral Pain Writhing Responses ([5]; 2 mg/kg): eradicated the pain response; also recorded: totally eliminated the pain response | writhing responses on day 11 ([10]; repeated administration daily for 10 days (10 mg/kg i.p.), vehicle 29.75±1.09): 9.60±2.85 | reduction in pain response after repeated administration ([10]; repeated administration daily for 10 days): 68%

CCCCCCC(C)(C)c1cc(O)c2c(c1)OC1C(O)CCCC21 (stereo not shown) [Compound C6S-5, 3-(1,1-Dimethylheptyl)-5a,6,7,8,9,9a-hexahydro-dibenzofuran-1,6-diol]
Inhibition of cytokine secretion into blood circulation, TNF-α [3]: NO (NO indicates that the compound tested did not significantly affect the level of cytokine in plasma of LPS injected mice and that its activity is comparable to vehicle, within ±20% from this control) | adverse cannabimimetic activities in any of the parameters monitored [4]: None | inhibition in vivo at 2 mg/kg ([5]; Mus musculus, iv, read-out: Percent Inhibition of Visceral Pain Writhing Responses): 35% | inhibition in vivo at 10 mg/kg ([6]; 3 hours after carrageenan, reduction in paw swelling, read-out: Percent Inhibition of Inflammatory Pain Responses, Edema): 56% | inhibition in vivo at 10 mg/kg ([6]; 3 hours, mechanical stimulus, read-out: Percent Inhibition of Inflammatory Pain Responses, ΔForce): 34% | inhibition in vivo at 10 mg/kg ([6]; 3 hours, thermal stimulus, read-out: Percent Inhibition of Inflammatory Pain Responses, ΔLT): 61% | Inhibition of cytokine secretion into blood circulation, IL-6 [7]: 85% | Inhibition of cytokine secretion into blood circulation, IL-10 [8]: 84% | Inhibition of cytokine secretion into blood circulation, IL-1β [9]: NO (NO indicates that the compound tested did not significantly affect the level of cytokine in plasma of LPS injected mice and that its activity is comparable to vehicle, within ±20% from this control)
